Reference: ChEMBL document CHEMBL5724806, “Unraveling interindividual differences and functional consequences of gut microbial metabolism of immunosuppressants” (2024)

Tests used:
Format in all cases: ADME
[1] = (§1) The drug is tested on the gut metagenome community of T-02 with ENA study accession number: PRJEB31790 for biotransformation under anaerobic condition. The drug concentrations were measured over 7 timepoints collected between 0 and 12 hours of incubation by liquid-chromatography-coupled mass spectrometry (LC–MS); set-up: dose 5 uM, timepoint 0, 0.75, 1.5, 3, 6, 9, 12 hours; settings: 5 µM
[2] = The drug is tested on Parabacteroides merdae strain: DSM19495 for biotransformation under anaerobic condition. The drug concentrations were measured over 6 timepoints collected between 0 and 12 hours of incubation by liquid-chromatography-coupled mass spectrometry (LC–MS); set-up: dose 5 uM, timepoint 0, 1.5, 3, 6, 9, 12 hours; settings: 5 µM
[3] = The drug is tested on Prevotella copri strain: DSM18205 for biotransformation under anaerobic condition. The drug concentrations were measured over 6 timepoints collected between 0 and 12 hours of incubation by liquid-chromatography-coupled mass spectrometry (LC–MS); set-up: dose 5 uM, timepoint 0, 1.5, 3, 6, 9, 12 hours; settings: segatella copri, 5 µM
[4] = The drug is tested on Capnocytophaga ochracea strain: DSM7271 for biotransformation under microaerobic condition. The drug concentrations were measured over 6 timepoints collected between 0 and 12 hours of incubation by liquid-chromatography-coupled mass spectrometry (LC–MS); set-up: dose 5 uM, timepoint 0, 1.5, 3, 6, 9, 12 hours; settings: 5 µM
[5] = as §1, with “A-05” for “T-02”, “microaerobic” for “anaerobic”; set-up: dose 5 uM, timepoint 0, 0.75, 1.5, 3, 6, 9, 12 hours; settings: 5 µM
[6] = The drug is tested on Streptococcus sanguinis strain: DSM20567 for biotransformation under microaerobic condition. The drug concentrations were measured over 6 timepoints collected between 0 and 12 hours of incubation by liquid-chromatography-coupled mass spectrometry (LC–MS); set-up: dose 5 uM, timepoint 0, 1.5, 3, 6, 9, 12 hours; settings: 5 µM
[7] = The drug is tested on Actinomyces naeslundi strain: DSM43013 for biotransformation under microaerobic condition. The drug concentrations were measured over 6 timepoints collected between 0 and 12 hours of incubation by liquid-chromatography-coupled mass spectrometry (LC–MS); set-up: dose 5 uM, timepoint 0, 1.5, 3, 6, 9, 12 hours; settings: actinomyces naeslundii, 5 µM
[8] = The drug is tested on Enterococcus faecalis strain: ATCC29212 for biotransformation under anaerobic condition. The drug concentrations were measured over 6 timepoints collected between 0 and 12 hours of incubation by liquid-chromatography-coupled mass spectrometry (LC–MS); set-up: dose 5 uM, timepoint 0, 1.5, 3, 6, 9, 12 hours; settings: 5 µM
[9] = The drug is tested on Lactobacillus ruminis strain: ATCC25644 for biotransformation under microaerobic condition. The drug concentrations were measured over 6 timepoints collected between 0 and 12 hours of incubation by liquid-chromatography-coupled mass spectrometry (LC–MS); set-up: dose 5 uM, timepoint 0, 1.5, 3, 6, 9, 12 hours; settings: ligilactobacillus ruminis, 5 µM
[10] = The drug is tested on Alloscardovia omnicolens strain: DSM21503 for biotransformation under microaerobic condition. The drug concentrations were measured over 6 timepoints collected between 0 and 12 hours of incubation by liquid-chromatography-coupled mass spectrometry (LC–MS); set-up: dose 5 uM, timepoint 0, 1.5, 3, 6, 9, 12 hours; settings: 5 µM
[11] = as §1, with “A-08” for “T-02”; set-up: dose 5 uM, timepoint 0, 0.75, 1.5, 3, 6, 9, 12 hours; settings: 5 µM
[12] = The drug is tested on Eubacterium eligens strain: DSM3376 for biotransformation under anaerobic condition. The drug concentrations were measured over 6 timepoints collected between 0 and 12 hours of incubation by liquid-chromatography-coupled mass spectrometry (LC–MS); set-up: dose 5 uM, timepoint 0, 1.5, 3, 6, 9, 12 hours; settings: lachnospira eligens, 5 µM
[13] = The drug is tested on Dorea formicigenerans strain: DSM3992 for biotransformation under anaerobic condition. The drug concentrations were measured over 6 timepoints collected between 0 and 12 hours of incubation by liquid-chromatography-coupled mass spectrometry (LC–MS); set-up: dose 5 uM, timepoint 0, 1.5, 3, 6, 9, 12 hours; settings: 5 µM
[14] = The drug is tested on Lactobacillus gasseri strain: DSM20243 for biotransformation under anaerobic condition. The drug concentrations were measured over 6 timepoints collected between 0 and 12 hours of incubation by liquid-chromatography-coupled mass spectrometry (LC–MS); set-up: dose 5 uM, timepoint 0, 1.5, 3, 6, 9, 12 hours; settings: 5 µM
[15] = The drug is tested on Coprococcus comes strain: ATCC27758 for biotransformation under anaerobic condition. The drug concentrations were measured over 6 timepoints collected between 0 and 12 hours of incubation by liquid-chromatography-coupled mass spectrometry (LC–MS); set-up: dose 5 uM, timepoint 0, 1.5, 3, 6, 9, 12 hours; settings: 5 µM
[16] = as §1, with “P-03” for “T-02”, “microaerobic” for “anaerobic”; set-up: dose 5 uM, timepoint 0, 0.75, 1.5, 3, 6, 9, 12 hours; settings: 5 µM
[17] = The drug is tested on Clostridium scindens strain: DSM5676 for biotransformation under anaerobic condition. The drug concentrations were measured over 6 timepoints collected between 0 and 12 hours of incubation by liquid-chromatography-coupled mass spectrometry (LC–MS); set-up: dose 5 uM, timepoint 0, 1.5, 3, 6, 9, 12 hours; settings: 5 µM
[18] = The drug is tested on Bacteroides stercoris strain: HM 1036 for biotransformation under anaerobic condition. The drug concentrations were measured over 6 timepoints collected between 0 and 12 hours of incubation by liquid-chromatography-coupled mass spectrometry (LC–MS); set-up: dose 5 uM, timepoint 0, 1.5, 3, 6, 9, 12 hours; settings: 5 µM
[19] = as §1, with “A-06” for “T-02”, “microaerobic” for “anaerobic”; set-up: dose 5 uM, timepoint 0, 0.75, 1.5, 3, 6, 9, 12 hours; settings: 5 µM
[20] = as §1, with “T-01” for “T-02”, “microaerobic” for “anaerobic”; set-up: dose 5 uM, timepoint 0, 0.75, 1.5, 3, 6, 9, 12 hours; settings: 5 µM
[21] = as §1, with “P-01” for “T-02”, “microaerobic” for “anaerobic”; set-up: dose 5 uM, timepoint 0, 0.75, 1.5, 3, 6, 9, 12 hours; settings: 5 µM
[22] = as §1, with “A-10” for “T-02”, “microaerobic” for “anaerobic”; set-up: dose 5 uM, timepoint 0, 0.75, 1.5, 3, 6, 9, 12 hours; settings: 5 µM
[23] = The drug is tested on Bacteroides caccae strain: DSM19024 for biotransformation under anaerobic condition. The drug concentrations were measured over 6 timepoints collected between 0 and 12 hours of incubation by liquid-chromatography-coupled mass spectrometry (LC–MS); set-up: dose 5 uM, timepoint 0, 1.5, 3, 6, 9, 12 hours; settings: 5 µM
[24] = as §1, with “T-05” for “T-02”, “microaerobic” for “anaerobic”; set-up: dose 5 uM, timepoint 0, 0.75, 1.5, 3, 6, 9, 12 hours; settings: 5 µM
[25] = The drug is tested on Lactobacillus fermentum strain: DSM20052 for biotransformation under microaerobic condition. The drug concentrations were measured over 6 timepoints collected between 0 and 12 hours of incubation by liquid-chromatography-coupled mass spectrometry (LC–MS); set-up: dose 5 uM, timepoint 0, 1.5, 3, 6, 9, 12 hours; settings: limosilactobacillus fermentum, 5 µM
[26] = as §1, with “A-07” for “T-02”, “microaerobic” for “anaerobic”; set-up: dose 5 uM, timepoint 0, 0.75, 1.5, 3, 6, 9, 12 hours; settings: 5 µM
[27] = as §1, with “T-03” for “T-02”; set-up: dose 5 uM, timepoint 0, 0.75, 1.5, 3, 6, 9, 12 hours; settings: 5 µM
[28] = The drug is tested on Streptococcus mitis strain: DSM12643 for biotransformation under anaerobic condition. The drug concentrations were measured over 6 timepoints collected between 0 and 12 hours of incubation by liquid-chromatography-coupled mass spectrometry (LC–MS); set-up: dose 5 uM, timepoint 0, 1.5, 3, 6, 9, 12 hours; settings: 5 µM
[29] = The drug is tested on Bifidobacterium adolescentis strain: DSM20083 for biotransformation under anaerobic condition. The drug concentrations were measured over 6 timepoints collected between 0 and 12 hours of incubation by liquid-chromatography-coupled mass spectrometry (LC–MS); set-up: dose 5 uM, timepoint 0, 1.5, 3, 6, 9, 12 hours; settings: 5 µM
[30] = as §1, with “A-04” for “T-02”; set-up: dose 5 uM, timepoint 0, 0.75, 1.5, 3, 6, 9, 12 hours; settings: 5 µM

| Structure (SMILES) | Bacterial Biotransformation [1] | Bacterial Biotransformation [2] | Bacterial Biotransformation [3] | Bacterial Biotransformation [4] | Bacterial Biotransformation [5] | Bacterial Biotransformation [6] | Bacterial Biotransformation [7] | Bacterial Biotransformation [8] | Bacterial Biotransformation [9] | Bacterial Biotransformation [10] | Bacterial Biotransformation [11] | Bacterial Biotransformation [12] | Bacterial Biotransformation [13] | Bacterial Biotransformation [14] | Bacterial Biotransformation [15] | Bacterial Biotransformation [16] | Bacterial Biotransformation [17] | Bacterial Biotransformation [18] | Bacterial Biotransformation [19] | Bacterial Biotransformation [20] | also measured |
| --- | --- | --- | --- | --- | --- | --- | --- | --- | --- | --- | --- | --- | --- | --- | --- | --- | --- | --- | --- | --- | --- |
| CNC(=C[N+](=O)[O-])NCCSCc1ccc(CN(C)C)o1 [RANITIDINE] | Compound NOT metabolized | Compound NOT metabolized | Compound NOT metabolized | Compound NOT metabolized | Compound NOT metabolized | Compound NOT metabolized | Compound NOT metabolized | Compound NOT metabolized | Compound NOT metabolized | Compound NOT metabolized | Compound NOT metabolized | Compound metabolized | Compound NOT metabolized | Compound NOT metabolized | Compound NOT metabolized | Compound NOT metabolized | Compound NOT metabolized | Compound NOT metabolized | Compound metabolized | Compound NOT metabolized | Bacterial Biotransformation [21]: Compound metabolized; Bacterial Biotransformation [22]: Compound NOT metabolized; Bacterial Biotransformation [23]: Compound NOT metabolized; Bacterial Biotransformation [24]: Compound NOT metabolized; Bacterial Biotransformation [25]: Compound NOT metabolized; Bacterial Biotransformation [26]: Compound metabolized; Bacterial Biotransformation [27]: Compound NOT metabolized; Bacterial Biotransformation [28]: Compound NOT metabolized; Bacterial Biotransformation [29]: Compound NOT metabolized; Bacterial Biotransformation [30]: Compound metabolized |
| CCC(C)(C)C(=O)O[C@H]1C[C@@H](C)C=C2C=C[C@H](C)[C@H](CC[C@@H]3C[C@@H](O)CC(=O)O3)[C@H]21 [SIMVASTATIN] | Compound NOT metabolized | Compound NOT metabolized | Compound metabolized | Compound NOT metabolized | Compound NOT metabolized | Compound NOT metabolized | Compound NOT metabolized | Compound NOT metabolized | Compound NOT metabolized | Compound NOT metabolized | Compound NOT metabolized | Compound NOT metabolized | Compound NOT metabolized | Compound NOT metabolized | Compound metabolized | Compound NOT metabolized | Compound metabolized | Compound NOT metabolized | Compound NOT metabolized | Compound NOT metabolized | Bacterial Biotransformation [21]: Compound NOT metabolized; Bacterial Biotransformation [22]: Compound NOT metabolized; Bacterial Biotransformation [23]: Compound NOT metabolized; Bacterial Biotransformation [24]: Compound NOT metabolized; Bacterial Biotransformation [25]: Compound NOT metabolized; Bacterial Biotransformation [26]: Compound NOT metabolized; Bacterial Biotransformation [27]: Compound NOT metabolized; Bacterial Biotransformation [28]: Compound NOT metabolized; Bacterial Biotransformation [29]: Compound NOT metabolized; Bacterial Biotransformation [30]: Compound NOT metabolized |
| CO[C@H]1C[C@@H]2CC[C@@H](C)[C@@](O)(O2)C(=O)C(=O)N2CCCC[C@H]2C(=O)O[C@H]([C@H](C)C[C@@H]2CC[C@@H](O)[C@H](OC)C2)CC(=O)[C@H](C)/C=C(\C)[C@@H](O)[C@@H](OC)C(=O)[C@H](C)C[C@H](C)/C=C/C=C/C=C/1C [SIROLIMUS] | Compound metabolized | Compound metabolized | Compound NOT metabolized | Compound NOT metabolized | Compound metabolized | Compound NOT metabolized | Compound NOT metabolized | Compound metabolized | Compound NOT metabolized | Compound NOT metabolized | Compound metabolized | Compound metabolized | Compound metabolized | Compound metabolized | Compound metabolized | Compound NOT metabolized | Compound metabolized | Compound metabolized | Compound metabolized | Compound NOT metabolized | Bacterial Biotransformation [21]: Compound NOT metabolized; Bacterial Biotransformation [22]: Compound NOT metabolized; Bacterial Biotransformation [23]: Compound metabolized; Bacterial Biotransformation [24]: Compound NOT metabolized; Bacterial Biotransformation [25]: Compound NOT metabolized; Bacterial Biotransformation [26]: Compound metabolized; Bacterial Biotransformation [27]: Compound NOT metabolized; Bacterial Biotransformation [28]: Compound NOT metabolized; Bacterial Biotransformation [29]: Compound NOT metabolized; Bacterial Biotransformation [30]: Compound metabolized |
